Source: publication PMC10697071, “Bio-guided isolation of alpha-glucosidase inhibitory compounds from Vietnamese liverwort Marchantia polymorpha: in vitro and in silico studies” (RSC Advances, 2023)
Entries after “also recorded” stand apart in the source; their conditions may differ.

What was measured:
[1] = target: yeast alpha-glucosidase; experiment: Alpha-glucosidase inhibition assay; format: biochemical; settings: for IC50: yeast alpha-glucosidase
Text: Evaluation of the inhibitory activity of 1–12 against yeast alpha-glucosidase followed a previous procedure.[37]

[2] = system: alpha-glucosidase; experiment: Kinetic study of alpha-glucosidase inhibition (Lineweaver–Burk plots); format: biochemical
Procedure: To examine the inhibition mechanism, activity at concentrations of 0, 3.61, 7.22, 14.44, and 28.88 μM of 2 was recorded. […] Increasing inhibitor concentrations cause a decrease in the Vmax of α-glucosidase.
The mechanisms of inhibition of alpha-glucosidase by 2 were determined by Lineweaver–Burk plots (Microsoft Excel 2010, Washington, USA), using methods similar to those reported in the literature.[40] Enzyme inhibition due to various concentrations of 2 was evaluated by monitoring the effects of different concentrations of the substrate. For Lineweaver–Burk double reciprocal plots 1/enzyme velocity (1/V) vs. 1/substrate concentration (1/[S]), the inhibition type was determined using various concentrations of pNPG (1 mM, 2 mM, and 4 mM) as a substrate in the presence of different concentrations of the test compound (0, 3.61, 7.22, 14.44, and 28.88 μM for 2). The experiments were carried out in three replicates. The mixtures were incubated at 37 °C, and the optical density was measured at 405 nm every 1 min for 30 min with the ELx800 Absorbance Microplate Reader (BioTek Instruments, Inc., Vermont, USA). The optimal concentrations of the tested compound were chosen based on the IC50 value. The inhibition constants were obtained graphically from secondary plots (Microsoft Excel 2010, Washington, USA).

Compound | IC50 [1] | also measured
Oc1cc2cc(c1O)Oc1ccc(cc1)CCc1cccc(O)c1Oc1cccc(c1)CC2 [Compound 1, Marchantin A] | 57.3 ± 1.9 µM | –
Oc1cccc2c1Oc1cccc(c1)CCc1cc(c(O)c(O)c1Br)Oc1ccc(cc1)CC2 [Compound 1a, 5′-Bromomarchantin A] | 151 ± 2.9 µM | Alpha-glucosidase inhibition (in words) ([1]; qualitative statement): weaker activity than the parent compound 1
Oc1ccc2c(c1)CCc1ccc(cc1)Oc1cc(ccc1O)CCc1ccc-2c(O)c1 [Compound 3, Riccardin C] | 42.2 ± 1.4 µM | –
Oc1ccc(CCc2cccc(O)c2)cc1 [Compound 5, Lunularin] | 130 ± 2 µM | –
COc1cc(OC)c2c(c1)[C@@H](Cc1ccc(OC)c(OC)c1)OC2=O [Compound 6, 3R-(3,4-Dimethoxybenzyl)-5,7-dimethoxyphthalide] | > 200 µM | –
CC1(C)CC[C@]2(C)CC[C@]3(C)C(=CCC4[C@@]5(C)CCC(=O)C(C)(C)C5CC[C@]43C)C2C1 (stereo partly drawn) [Compound 10, 12-Oleanene-3-one] | 75.1 ± 1.8 µM | –
C[C@H]1[C@H](C)CC[C@]2(C(=O)O)CC[C@]3(C)C(=CC[C@@H]4[C@@]5(C)CC[C@H](O)C(C)(C)[C@@H]5CC[C@]43C)[C@H]12 [Compound 12, Ursolic acid] | 86 ± 6.9 µM | –

The next lines start with results.

IC50 [1] | Compound | also measured
28.9 ± 0.2 µM | Oc1ccc2cc1Oc1ccc(cc1)CCc1ccc(c(O)c1)-c1c(O)cccc1CC2 [Compound 2, Isoriccardin C] | Type of inhibition ([2]; Lineweaver–Burk plots, same Km, decreasing Vmax): non-competitive inhibitor; also recorded: non-competitive type; Ki ([2]; pNPG substrate 1, 2, 4 mM, 37 °C, secondary plot of slope versus concentration, read-out: Ki (inhibition constant)): 67.1 ± 1.28 µM
131 ± 3 µM | COC1Cc2cccc(c2)Oc2c(ccc(O)c2O)CCc2ccc(cc2)Oc2cc1cc(O)c2O (stereo not drawn) [Compound 4, Marchantin K] | –
> 200 µM | COc1cc(OC)c2c(c1)[C@H](Cc1cc(OC)c(OC)c(OC)c1)OC2=O [Compound 7, Marchatoside] | –
101 ± 3 µM | C[C@@H]1CC[C@]2(C(=O)O)CC[C@]3(C)C(=CC(=O)C4[C@@]5(C)CCC(=O)C(C)(C)C5CC[C@]43C)C2[C@H]1C (stereo partly drawn) [Compound 11, 3,11-Dioxoursolic acid] | –
> 200 µM | Vitexilactone [Compound 9] | –
